Where two headings read alike, the source gives them in different places.
Experiment: Pharmacokinetics in dogs (plasma concentration by HPLC)
Assay type: in vivo, dog (beagle)
Settings: for AUC(0-t) / Cmax / Tmax / half-life / AUC(0-inf) / concentration at 0.5 h / concentration at 1 h / concentration at 2 h / concentration at 4 h / concentration at 7 h / concentration at 12 h: 2 mg/kg/day PO; for AUC(0-inf): read-out: AUCO- (to infinite time)
Protocol: Since dogs are used in toxicology studies of antiasthma compounds, this species is chosen for pharmacokinetic evaluations. Use of the dog permits the pharmacokinetic comparison of 2 or more compounds in the same test animal, an evaluation which could not be conveniently performed in a smaller species. For each test compound, normal dogs are given a dose of 2.0 mg/kg/day for 5 consecutive days. There is a washout period of 1 month between the study of each of the test compounds in the same four dogs. Each test compound is administered as a solution of 5 mg/ml in either 0.05 or 0.1N HCl which is dispensed into a gelatin capsule immediately prior to dosage.
Heparinized blood samples are obtained from each animal on the first, third and fifth day of dosage at 0.5, 1.0, 2.0, 4.0, 7.0, 12.0 and 24.0 hours after the dose. The samples are centrifuged immediately to obtain plasma which is frozen until analyzed.
Analysis of plasma is performed using High Performance Liquid Chromatography (HPLC). The analytical procedure is essentially identical for each compound. The internal standard used for N-[3-[2-(1H-imidazol-1-yl)ethoxy]phenyl]-4-(2-thienyl)2-pyrimidinamine is 2-chloro-11-(4-methyl-1-piperazinyl)dibenz[b,f][1,4]oxazepine succinate, while for 2-methyl-N^4 -[4-(4-pyridinyl)-2-pyrimidinyl]-1,4-benzenediamine dihydrochloride and N-[4-[2-(diethylamino)ethoxy]phenyl]-4-(4-pyridinyl)-2-pyrimidnamine dihydrochloride the internal standard is 7-ethoxy-coumarin. In a typical procedure, a 0.4 ml volume of acetonitrile containing internal standard is added a 0.2 ml volume of serum. The sample is mixed by vortexing and centrifuged. The clear protein free supernatent fluid is decanted into a clean tube and evaporated to dryness. The dry residue is dissolved in 0.2 ml of HPLC mobile phase and 50 ul of this solution injected. Peaks corresponding to the test compound being measured and to the internal standard compound are quantitated by their absorption of ultraviolet light at 280 nm. Each set of analytical samples is accompanied by the analysis of a group of standard dog plasma samples prepared to contain amounts of the compound being measured which encompasses the concentration range of the samples.
Four normal beagle dogs weighing between 9.2 and 10.2 Kg are used in the study.

[1] = dog, plasma, po, 2 mg/kg/day, Dog 3, day 3
[2] = dog, plasma, po, 2 mg/kg/day, Dog 3, day 5
[3] = dog, plasma, po, 2 mg/kg/day, Dog 4, day 1
[4] = dog, plasma, po, 2 mg/kg/day, Dog 4, day 3
[5] = dog, plasma, po, 2 mg/kg/day, Dog 4, day 5
[6] = dog, plasma, po, 2 mg/kg/day, Mean, day 1
[7] = dog, plasma, po, 2 mg/kg/day, Mean, day 3
[8] = dog, plasma, po, 2 mg/kg/day, Mean, day 5

AUC(0-t) [1]: 799 ng·h/mL | Cmax [1]: 350 ng/mL | Tmax [1]: 1 h | half-life [1]: 1.62 h | AUC(0-inf) [1]: 955 ng·h/mL | concentration at 0.5 h (dog, plasma, po, 2 mg/kg/day, Dog 3, day 5, 0.5 h): < 30 ng/mL | concentration at 1 h (dog, plasma, po, 2 mg/kg/day, Dog 3, day 5, 1 h): 272 ng/mL | concentration at 2 h (dog, plasma, po, 2 mg/kg/day, Dog 3, day 5, 2 h): 233 ng/mL | concentration at 4 h (dog, plasma, po, 2 mg/kg/day, Dog 3, day 5, 4 h): 114 ng/mL | concentration at 7 h (dog, plasma, po, 2 mg/kg/day, Dog 3, day 5, 7 h): < 30 ng/mL | concentration at 12 h (dog, plasma, po, 2 mg/kg/day, Dog 3, day 5, 12 h): < 30 ng/mL | AUC(0-t) [2]: 682 ng·h/mL | Cmax [2]: 272 ng/mL | Tmax [2]: 1 h | half-life [2]: 1.94 h | AUC(0-inf) [2]: 978 ng·h/mL | concentration at 0.5 h (dog, plasma, po, 2 mg/kg/day, Dog 4, day 1, 0.5 h): 173 ng/mL | concentration at 1 h (dog, plasma, po, 2 mg/kg/day, Dog 4, day 1, 1 h): 364 ng/mL | concentration at 2 h (dog, plasma, po, 2 mg/kg/day, Dog 4, day 1, 2 h): 325 ng/mL | concentration at 4 h (dog, plasma, po, 2 mg/kg/day, Dog 4, day 1, 4 h): 172 ng/mL | concentration at 7 h (dog, plasma, po, 2 mg/kg/day, Dog 4, day 1, 7 h): 40 ng/mL | concentration at 12 h (dog, plasma, po, 2 mg/kg/day, Dog 4, day 1, 12 h): < 30 ng/mL | AUC(0-t) [3]: 1340 ng·h/mL | Cmax [3]: 364 ng/mL | Tmax [3]: 1 h | half-life [3]: 1.64 h | AUC(0-inf) [3]: 1440 ng·h/mL | concentration at 0.5 h (dog, plasma, po, 2 mg/kg/day, Dog 4, day 3, 0.5 h): 65 ng/mL | concentration at 1 h (dog, plasma, po, 2 mg/kg/day, Dog 4, day 3, 1 h): 220 ng/mL | concentration at 2 h (dog, plasma, po, 2 mg/kg/day, Dog 4, day 3, 2 h): 144 ng/mL | concentration at 4 h (dog, plasma, po, 2 mg/kg/day, Dog 4, day 3, 4 h): 38 ng/mL | concentration at 7 h (dog, plasma, po, 2 mg/kg/day, Dog 4, day 3, 7 h): < 30 ng/mL | concentration at 12 h (dog, plasma, po, 2 mg/kg/day, Dog 4, day 3, 12 h): < 30 ng/mL | AUC(0-t) [4]: 452 ng·h/mL | Cmax [4]: 220 ng/mL | Tmax [4]: 1 h | half-life [4]: 1.61 h | AUC(0-inf) [4]: 551 ng·h/mL | concentration at 0.5 h (dog, plasma, po, 2 mg/kg/day, Dog 4, day 5, 0.5 h): < 30 ng/mL | concentration at 1 h (dog, plasma, po, 2 mg/kg/day, Dog 4, day 5, 1 h): 191 ng/mL | concentration at 2 h (dog, plasma, po, 2 mg/kg/day, Dog 4, day 5, 2 h): 197 ng/mL | concentration at 4 h (dog, plasma, po, 2 mg/kg/day, Dog 4, day 5, 4 h): 71 ng/mL | concentration at 7 h (dog, plasma, po, 2 mg/kg/day, Dog 4, day 5, 7 h): < 30 ng/mL | concentration at 12 h (dog, plasma, po, 2 mg/kg/day, Dog 4, day 5, 12 h): < 30 ng/mL | AUC(0-t) [5]: 510 ng·h/mL | Cmax [5]: 197 ng/mL | Tmax [5]: 2 h | AUC(0-inf) [5]: 694 ng·h/mL | concentration at 0.5 h (dog, plasma, po, 2 mg/kg/day, Mean of 4 dogs, day 1, 0.5 h): 235 ng/mL | concentration at 1 h (dog, plasma, po, 2 mg/kg/day, Mean of 4 dogs, day 1, 1 h): 405 ng/mL | concentration at 2 h (dog, plasma, po, 2 mg/kg/day, Mean of 4 dogs, day 1, 2 h): 318 ng/mL | concentration at 4 h (dog, plasma, po, 2 mg/kg/day, Mean of 4 dogs, day 1, 4 h): 188 ng/mL | concentration at 7 h (dog, plasma, po, 2 mg/kg/day, Mean of 4 dogs, day 1, 7 h): 52 ng/mL | concentration at 12 h (dog, plasma, po, 2 mg/kg/day, Mean of 4 dogs, day 1, 12 h): < 30 ng/mL | concentration at 0.5 h (dog, plasma, po, 2 mg/kg/day, Mean of 4 dogs, day 3, 0.5 h): 89 ng/mL | concentration at 1 h (dog, plasma, po, 2 mg/kg/day, Mean of 4 dogs, day 3, 1 h): 225 ng/mL | concentration at 2 h (dog, plasma, po, 2 mg/kg/day, Mean of 4 dogs, day 3, 2 h): 148 ng/mL | concentration at 4 h (dog, plasma, po, 2 mg/kg/day, Mean of 4 dogs, day 3, 4 h): 33 ng/mL | concentration at 7 h (dog, plasma, po, 2 mg/kg/day, Mean of 4 dogs, day 3, 7 h): < 30 ng/mL | concentration at 12 h (dog, plasma, po, 2 mg/kg/day, Mean of 4 dogs, day 3, 12 h): < 30 ng/mL | concentration at 0.5 h (dog, plasma, po, 2 mg/kg/day, Mean of 4 dogs, day 5, 0.5 h): 106 ng/mL | concentration at 1 h (dog, plasma, po, 2 mg/kg/day, Mean of 4 dogs, day 5, 1 h): 276 ng/mL | concentration at 2 h (dog, plasma, po, 2 mg/kg/day, Mean of 4 dogs, day 5, 2 h): 212 ng/mL | concentration at 4 h (dog, plasma, po, 2 mg/kg/day, Mean of 4 dogs, day 5, 4 h): 82 ng/mL | concentration at 7 h (dog, plasma, po, 2 mg/kg/day, Mean of 4 dogs, day 5, 7 h): < 30 ng/mL | concentration at 12 h (dog, plasma, po, 2 mg/kg/day, Mean of 4 dogs, day 5, 12 h): < 30 ng/mL | AUC(0-t) [6]: 1380 ng·h/mL | Cmax [6]: 405 ng/mL | Tmax [6]: 1 h | half-life [6]: 2.27 h | AUC(0-inf) [6]: 1620 ng·h/mL | AUC(0-t) [7]: 444 ng·h/mL | Cmax [7]: 225 ng/mL | Tmax [7]: 1 h | half-life [7]: 1.47 h | AUC(0-inf) [7]: 595 ng·h/mL | AUC(0-t) [8]: 659 ng·h/mL | Cmax [8]: 277 ng/mL | Tmax [8]: 1.25 h | half-life [8]: 1.5 h | AUC(0-inf) [8]: 871 ng·h/mL | k el (dog, plasma, po, 2 mg/kg/day, derived from mean of half-life values, read-out: elimination constant (converted)): 0.000107 s⁻¹
SMILES: c1cc(Nc2nccc(-c3cccs3)n2)cc(OCCn2ccnc2)c1 [N-[3-[2-(1H-imidazol-1-yl)ethoxy]phenyl]-4-(2-thienyl)-2-pyrimidinamine]
plasma half-life (in words) (dogs, compared with the two compounds of U.S. Pat. No. 4,788,195): increased plasma half-life and reproducibility

Reference: patent US5162328A, “N-[3-[2-(1H-imidazol-1-yl)ethoxy]phenyl]-4-(2-thienyl)-2-pyrimidinamine and pharmacologically acceptable salts” (American Cyanamid Company, priority 1991, dated 1992)
